# Reference: US10030016B2 (Sunesis Pharmaceuticals, Inc., priority 2009, dated 2018)
# Read-outs that look alike come from different tables or passages of the source.
# Key:
# PDK1 = PDK1 (Homo sapiens (Human), UniProt O15530); test: PDK1 kinase assay (coupled PDK1/AKT/FAM-crosstide assay, IMAP fluorescence polarization); format: biochemical; details: inhibition of PDK1 in vitro
# In short: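 Inhibition is derived by 4-parameter fitting of ΔmP from an IMAP fluorescence polarization read of FAM-crosstide (100 nM) phosphorylation. The cascade ran 30 min at 25 °C with 40 μM ATP, using insect-cell GST-PDK1 51-359 (0.75 nM) driving 10 nM unphosphorylated AKT2 140-467-PIFtide fusion.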
# [1] = test system: phospho-akt (Thr308) in PC-3 cells; test: Inhibition of phospho-akt (Thr308) in PC-3 cells, MSD phospho-akt 308 ELISA kit; format: cell-based; details: Homo sapiens
# In short: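 PC-3 cells (15,000/well, overnight in 10% FBS medium) treated 2 h with three-fold diluted compounds in serum-free medium; DMSO high and 5 μM wortmannin low controls. Lysates captured on BSA-blocked MSD plates overnight at 4 °C, then 1 h antibody detection at RT; phospho-Akt Thr308 read by MSD electrochemiluminescence.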
# [2] = inhibition of P308 Akt in PC-3 cells using MSD, 2 hours, no serum, read-out: EC50
# PDK1, sequence (O15530 51-359): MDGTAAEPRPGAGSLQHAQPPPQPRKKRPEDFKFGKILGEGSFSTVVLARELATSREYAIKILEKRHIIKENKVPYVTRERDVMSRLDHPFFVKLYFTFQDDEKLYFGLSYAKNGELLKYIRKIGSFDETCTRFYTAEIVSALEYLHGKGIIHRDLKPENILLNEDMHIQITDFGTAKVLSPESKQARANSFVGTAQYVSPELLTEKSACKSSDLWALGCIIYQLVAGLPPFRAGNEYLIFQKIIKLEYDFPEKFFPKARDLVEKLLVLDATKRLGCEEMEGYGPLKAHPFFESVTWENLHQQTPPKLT
IC50 (PDK1) [nM],"EC50 [1, 2] [nM]",SMILES,"EC50 ([1]; PC-3, 2 h) [nM]"
< 100,< 1000,"C[C@H](NC(=O)c1nc(C#N)cnc1NCc1ccc(-c2ccn3ncnc(N)c23)cc1)c1ccc(F)c(F)c1 [Example 175, 3-[4-(4-Amino-pyrrolo [2,1-f][1,2,4]triazin-5-yl)-benzylamino]-6-cyano-pyrazine-2-carboxylic acid [(S)-1-(3,4-difluoro-phenyl)-ethyl]-amide]",–
< 100,1000 to 10000,"Nc1ncnn2ccc(-c3ccc(CNc4ncc(C(F)(F)F)cc4C(=O)NCc4ccc(F)c(F)c4)cc3)c12 [Example 176, 2-[4-(4-Amino-pyrrolo [2,1-f][1,2,4]triazin-5-yl)-benzylamino]-N-(3,4-difluoro-benzyl)-5-trifluoromethyl-nicotinamide]",–
< 100,1000 to 10000,"Nc1ncnn2ccc(-c3ccc(CNc4ncc(C(F)(F)F)cc4C(=O)Nc4ccc(F)cc4)cc3)c12 [Example 177, 2-[4-(4-Amino-pyrrolo [2,1-f][1,2,4]triazin-5-yl)-benzylamino]-N-(4-fluoro-phenyl)-5-trifluoromethyl-nicotinamide]",–
< 100,1000 to 10000,"C[C@H](NC(=O)c1cc(C#N)cnc1NCc1ccc(-c2ccc3c(N)ncnn23)cc1)c1ccc(F)cc1 [Example 178, 2-[4-(4-Amino-pyrrolo [2,1-f][1,2,4]triazin-7-yl)-benzylamino]-5-cyano-N-[(S)-1-(4-fluoro-phenyl)-ethyl]-nicotinamide]",–
100 to 1000,1000 to 10000,"Nc1ncnn2c(-c3ccc(CNc4ncc(C(F)(F)F)cc4C(=O)NCc4ccc(F)c(F)c4)cc3)ccc12 [Example 179, 2-[4-(4-Amino-pyrrolo [2,1-f][1,2,4]triazin-7-yl)-benzylamino]-N-(3,4-difluoro-benzyl)-5-trifluoromethyl-nicotinamide]",–
< 100,1000 to 10000,"Nc1ncnn2c(-c3ccc(CNc4ncc(C(F)(F)F)cc4C(=O)Nc4ccc(F)cc4)cc3)ccc12 [Example 180, 2-[4-(4-Amino-pyrrolo [2,1-f][1,2,4]triazin-7-yl)-benzylamino]-N-(4-fluoro-phenyl)-5-trifluoromethyl-nicotinamide]",–
< 100,< 1000,"C[C@H](NC(=O)c1nc(C#N)cnc1NCc1ccc(-c2ccc3c(N)ncnn23)cc1)c1ccc(F)c(F)c1 [Example 181, 3-[4-(4-Amino-pyrrolo [2,1-f][1,2,4]triazin-7-yl)-benzylamino]-6-cyano-pyrazine-2-carboxylic acid [(S)-1-(3,4-difluoro-phenyl)-ethyl]-amide]",–
< 100,< 1000,"C[C@H](NC(=O)c1cc(C#N)cnc1NCc1ccc(-c2cnc3[nH]nc(N)c3n2)cc1)c1ccc(F)cc1 [Example 183, 2-[4-(3-Amino-1H-pyrazolo [3,4-b]pyrazin-5-yl)-benzylamino]-5-cyano-N-[(S)-1-(4-fluoro-phenyl)-ethyl]-nicotinamide]",–
< 100,< 1000,Nc1n[nH]c2ncc(-c3ccc(CNc4ncc(C(F)(F)F)cc4C(=O)Nc4ccc(F)cc4)cc3)nc12 [Example 184],–
< 100,< 1000,"C[C@H](NC(=O)c1cc(C#N)cnc1NCc1ccc(-c2cnc(N)c(CC3CCNC3)n2)cc1)c1ccc(F)cc1 (stereo partly drawn) [Example 185, 2-[4-(5-Amino-6-pyrrolidin-3-ylmethyl-pyrazin-2-yl)-benzylamino]-5-cyano-N-[(S)-1-(4-fluoro-phenyl)-ethyl]-nicotinamide]",–
< 100,< 1000,"Nc1ncc(-c2ccc(CNc3ncc(C(F)(F)F)cc3C(=O)Nc3ccc(F)cc3)cc2)nc1CC1CCNC1 (centres unmarked) [Example 186, 2-[4-(5-Amino-6-pyrrolidin-3-ylmethyl-pyrazin-2-yl)-benzylamino]-N-(4-fluoro-phenyl)-5-trifluoromethyl-nicotinamide]",–
< 100,< 1000,"C[C@H](NC(=O)c1nc(C#N)cnc1NCc1ccc(-c2cnc(N)c(CC3CCNC3)n2)cc1)c1ccc(F)c(F)c1 (stereo partly drawn) [Example 187, 3-[4-(5-Amino-6-pyrrolidin-3-ylmethyl-pyrazin-2-yl)-benzylamino]-6-cyano-pyrazine-2-carboxylic acid [(S)-1-(3,4-difluoro-phenyl)-ethyl]-amide]",–
< 100,1000 to 10000,"C[C@H](NC(=O)c1cc(C#N)cnc1NCc1ccc(-c2cnc(N)c(N3CCC[C@@H](N)C3)n2)cc1)c1ccc(F)cc1 [Example 188, 2-{4-[5-Amino-6-((R)-3-amino-piperidin-1-yl)-pyrazin-2-yl]-benzylamino}-5-cyano-N-[(S)-1-(4-fluoro-phenyl)-ethyl]-nicotinamide]",–
< 100,1000 to 10000,"Nc1ncc(-c2ccc(CNc3ncc(C(F)(F)F)cc3C(=O)Nc3ccc(F)cc3)cc2)nc1N1CCC[C@@H](N)C1 [Example 189, 2-{4-[5-Amino-6-((R)-3-amino-piperidin-1-yl)-pyrazin-2-yl]-benzylamino}-N-(4-fluoro-phenyl)-5-trifluoromethyl-nicotinamide]",–
< 100,1000 to 10000,"C[C@H](NC(=O)c1nc(C#N)cnc1NCc1ccc(-c2cnc(N)c(N3CCC[C@@H](N)C3)n2)cc1)c1ccc(F)c(F)c1 [Example 190, 3-{4-[5-Amino-6-((R)-3-amino-piperidin-1-yl)-pyrazin-2-yl]-benzylamino}-6-cyano-pyrazine-2-carboxylic acid [(S)-1-(3,4-difluoro-phenyl)-ethyl]-amide]",–
< 100,< 1000,"C[C@H](NC(=O)c1cc(C#N)cnc1NCc1ccc(-c2cnc(N)c(N3CCNCC3)n2)cc1)c1ccc(F)cc1 [Example 191, 2-[4-(3′-Amino-3,4,5,6-tetrahydro-2H-[1,2′]bipyrazinyl-6′-yl)-benzylamino]-5-cyano-N-[(S)-1-(4-fluoro-phenyl)-ethyl]-nicotinamide]",–
< 100,1000 to 10000,"C[C@H](NC(=O)c1nc(C#N)cnc1NCc1ccc(-c2cnc(N)c(N3CCNCC3)n2)cc1)c1ccc(F)c(F)c1 [Example 192, 3-[4-(3′-Amino-3,4,5,6-tetrahydro-2H-[1,2′]bipyrazinyl-6′-yl)-benzylamino]-6-cyano-pyrazine-2-carboxylic acid [(S)-1-(3,4-difluoro-phenyl)-ethyl]-amide]",–
< 100,1000 to 10000,"Nc1ncc(-c2ccc(CNc3ncc(C(F)(F)F)cc3C(=O)Nc3ccc(F)cc3)cc2)nc1N1CCNCC1 [Example 193, 2-[4-(3′-Amino-3,4,5,6-tetrahydro-2H-[1,2′]bipyrazinyl-6′-yl)-benzylamino]-N-(4-fluoro-phenyl)-5-trifluoromethyl-nicotinamide]",–
< 100,< 1000,"NCCNc1nc(-c2ccc(CNc3ncc(C(F)(F)F)cc3C(=O)Nc3ccc(F)cc3)cc2)cnc1N [Example 194, 2-{4-[5-Amino-6-(2-amino-ethylamino)-pyrazin-2-yl]-benzylamino}-N-(4-fluoro-phenyl)-5-trifluoromethyl-nicotinamide]",–
< 100,< 1000,"C[C@H](NC(=O)c1nc(C#N)cnc1NCc1ccc(-c2cnc(N)c(NCCN)n2)cc1)c1ccc(F)c(F)c1 [Example 195, 3-{4-[5-Amino-6-(2-amino-ethylamino)-pyrazin-2-yl]-benzylamino}-6-cyano-pyrazine-2-carboxylic acid [(S)-1-(3,4-difluoro-phenyl)-ethyl]-amide]",–
< 100,< 1000,Nc1ncc(-c2ccc(CNc3ncc(C(F)(F)F)cc3C(=O)Nc3ccc(F)cc3)cc2)nc1N1CCC[C@H](N)C1 [Example 196],–
< 100,< 1000,C[C@H](NC(=O)c1cc(C#N)cnc1NCc1ccc(-c2cnc(N)c(N3CCC[C@H](N)C3)n2)cc1)c1ccc(F)cc1 [Example 197],–
< 100,< 1000,C[C@H](NC(=O)c1nc(C#N)cnc1NCc1ccc(-c2cnc(N)c(N3CCC[C@H](N)C3)n2)cc1)c1ccc(F)c(F)c1 [Example 198],–
< 100,< 1000,"C[C@H](NC(=O)c1cc(C#N)cnc1NCc1ccc(-c2cnc(N)c(NCCN)n2)cc1)c1ccc(F)cc1 [Example 199, 2-{4-[5-Amino-6-(2-amino-ethylamino)-pyrazin-2-yl]-benzylamino}-5-cyano-N-[(S)-1-(4-fluoro-phenyl)-ethyl]-nicotinamide]",–
< 100,1000 to 10000,"CC(C)(N)COc1nc(-c2ccc(CNc3ncc(C(F)(F)F)cc3C(=O)Nc3ccc(F)cc3)cc2)cnc1N [Example 200, 2-{4-[5-Amino-6-(2-amino-2-methyl-propoxy)-pyrazin-2-yl]-benzylamino}-N-(4-fluoro-phenyl)-5-trifluoromethyl-nicotinamide]",–
< 100,< 1000,"C[C@H](NC(=O)c1cc(C#N)cnc1NCc1ccc(-c2cnc(N)c(C(N)=O)c2)cc1)c1ccc(F)cc1 [Example 201, (S)-2-(4-(6-amino-5-carbamoylpyridin-3-yl)benzylamino)-5-cyano-N-(1-(4-fluorophenyl)ethyl)nicotinamide]",–
< 100,1000 to 10000,"C[C@H](NC(=O)c1cc(C#N)cnc1NCc1ccc(-c2cnc(N)c(C(=O)NCCN3CCOCC3)c2)cc1)c1ccc(F)cc1 [Example 202, (S)-2-amino-5-(4-((5-cyano-3-(1-(4-fluorophenyl)ethylcarbamoyl)pyridin-2-ylamino)methyl)phenyl)-N-(2-morpholinoethyl) nicotinamide]",–

SMILES,IC50 (PDK1) [nM],"EC50 [1, 2] [nM]","EC50 ([1]; PC-3, 2 h) [nM]"
"C[C@H](NC(=O)c1nc(C#N)cnc1NCc1ccc(-c2cnc3[nH]nc(N)c3n2)cc1)c1ccc(F)c(F)c1 [Example 182, 3-[4-(3-Amino-1H-pyrazolo[3,4-b]pyrazin-5-yl)-benzylamino]-6-cyano-pyrazine-2-carboxylic acid [(S)-1-(3,4-difluoro-phenyl)-ethyl]-amide]",< 100,–,< 1000
